Data set [1] has as its target wild-type his-tagged mouse Pgp transporter reconstituted into liposomes (Mus musculus, UniProt P21447). The experiment in a line: Pgp-coupled ATPase activity.
The target of data set [2] is T1, mouse Pgp reconstituted in liposomes (Mus musculus, UniProt P21447). The experiment in a line: AMPPNP-induced quenching of Pgp intrinsic tryptophan fluorescence.
The target of data set [3] is T1, mouse Pgp reconstituted in liposomes. The note with it: 3.2 mM (saturating) AMPPNP, no verapamil.
The target in data set [4] is mouse Pgp reconstituted into liposomes (Mus musculus, UniProt P21447).
The mark [5] stands for this setting: 3.2 mM AMPPNP, 1 µM Pgp, no verapamil.

Molecules are shown by their SMILES. Where “and” joins values, the source holds several entries; their conditions need not be identical. Equal values may be shown once. Read-outs that look alike come from different tables or passages of the source.

Consider `Nc1ncnc2c1ncn2[C@@H]1O[C@H](COP(=O)(O)OP(=O)([O-])OP(=O)([O-])O)[C@@H](O)[C@H]1O.[Na+].[Na+]` [ATP, Disodium ATP], for which the “VMAX basal Pgp ATPase activity” value in data set [1] (ATP titration in the absence of verapamil, Equation 1) is 619 ± 18 nmol/min/mg. Besides, the “increase of ATP affinity in the presence of two bound verapamil molecules” value in data set [1] (COPASI fit, KD5 versus KD3, saturating verapamil) is ~ 4 fold and 4 fold. For the same molecule, the “Vmax0 (basal ATPase activity, E-ATP)” value in data set [1] (COPASI fit, average over […]-3.2 mM ATP) was 672 ± 93 nmol/min/mg. Besides, in data set [1] (no verapamil), the “VMAX of Pgp-coupled ATPase with ATP alone (discussion)” value was 500 to 700 nmol/min/mg. Further, the Kd was 1.49 mM in data set [1] (read-out: KD4 (ATP to EV, one bound verapamil), COPASI fit, 0.5 mM ATP data set); 1.34 mM in data set [1] (read-out: KD4 (ATP to EV, one bound verapamil), COPASI fit, 1 mM ATP data set); 1.03 mM in data set [1] (read-out: KD4 (ATP to EV, one bound verapamil), COPASI fit, 2 mM ATP data set); 1 mM in data set [1] (read-out: KD4 (ATP to EV, one bound verapamil), COPASI fit, 3.2 mM ATP data set); 1.35 mM in data set [1] (read-out: KD4 (ATP to EV, one bound verapamil), COPASI fit, […] ATP data set); 0.21 mM in data set [1] (read-out: KD5 (ATP to EVV, two bound verapamil), COPASI fit, 3.2 mM ATP data set). The Km in data set [1] (read-out: Km for ATP in the presence of Na3VO4, 200 µM Na3VO4, range of ATP concentrations, Equation 1) was 906 ± 476 µM.

Consider `Nc1ncnc2c1ncn2[C@@H]1O[C@H](COP(=O)([O-])OP(=O)([O-])NP(=O)([O-])[O-])[C@@H](O)[C@H]1O.[Li+].[Li+].[Li+].[Li+]` [AMPPNP, Adenosine 5’-(β,γ-imido)triphosphate lithium salt], for which, in data set [2] (37 °C, data not shown), the “K1 (low concentration phase)” value amounted to 8 µM⁻¹ and the “K2 (high concentration phase)” value is 0.017 µM⁻¹. In addition, in data set [2] (fit to equation 6), the “K1 (low concentration phase, dynamic quenching)” value is given as 6.66 +/− 3.41 µM ^−1; the “K2 (high concentration phase, static quenching)” value is 0.022 +/− 0.006 µM ^−1; the “fraction quenched, high concentration phase (FH/F0)” value was 0.074; the “fraction quenched, low concentration phase (FL/F0)” value is 0.16. The Kd in data set [2] (read-out: KD of AMPPNP for Pgp, from high concentration (static) quenching phase) was found to be 0.045 mM. Moreover, the “decrease of Pgp tryptophan fluorescence” value in data set [2] (saturating AMPPNP concentration, 1 µM Pgp) was “about 15%”. This molecule returned a KSV acrylamide quenching in data set [3] of 0.97 ± 0.16 M⁻¹. Besides, the “decrease of average STDD amplification factor of AMPPNP” value in data set [4] (3.2 mM AMPPNP and 8 µM verapamil) stood at 15%. In addition, in data set [4] (3.2 mM AMPPNP and 1 mM verapamil), the “increase of average STDD amplification factors of AMPPNP” value was “more than 20%”. Moreover, in data set [4] (setting [5]), the “average STDD amplification factor for AMPPNP” value was 63 ± 51; the “average STDD amplification factor, purine base” value is recorded as 79 ± 64; the “average STDD amplification factor, ribose sugar” value is 40 ± 11.

Regarding `[Na+].[Na+].[Na+].[O]=[V]([O-])([O-])[O-]` [Na3VO4, sodium orthovanadate], the “mode of inhibition of Pgp-mediated ATP hydrolysis” value in data set [1] (200 µM) is reported as “non-competitive inhibitor”. Further, the “VMAX Pgp ATPase activity in the presence of Na3VO4” value in data set [1] (200 µM Na3VO4, range of ATP concentrations, Equation 1) turned out to be 172 ± 24 nmol/min/mg. The “Na3VO4 sensitive VMAX for Pgp” value in data set [1] (difference in VMAX without and with 200 µM Na3VO4) was 447 ± 30 nmol/min/mg.

Broadly, the Km is the substrate concentration at which the rate is half of its maximum.

These data come from publication PMC5341695 (Biochemical pharmacology, 2016).
